Reference: US20200131227A1, “POLYPEPTIDE WITH TUMOUR BINDING ACTIVITY” (RUPRECHT-KARLS-UNIVERSITÄT HEIDELBERG, priority 2017, published 2020)
“And” between values parts separate entries of the source, which are not always exact repeats. Equal values may be shown once. *1 amine or outer side, *2 acyl side, *3 side chain or, on linkers, in order; H or OH if unused. Bridges are numbered along the chain shown (N, C = ends). Roman numbers before positions name the chains, in order. Where no end group is shown, it is not given here. [ ]: non-standard residue; d: D form. The star is where a group is joined. ξ: configuration not given here. DOTA = O=C(O)CN1CCN(CC(=O)O)CCN(CC(=O)*)CCN(CC(=O)O)CC1; 125I = iodine-125 label on tyrosine, [125I]*; X1 = O=C(CO/N=C/C(=O)[*:2])[*:1]; ξK = NCCCCC(N)C(=O)O; ξS = NC(CO)C(=O)O

How the values were obtained:
carcinoma cell lines = assay: In vitro binding of radiolabeled peptides to several carcinoma cell lines; format: cell-based, human; conditions: for binding of ^125I-labeled peptide with unlabeled peptide as competitor: co-incubation with 10^-6 M unlabeled peptide, 60 min, all cell lines tested
Protocol: (§1) For binding studies, 2.5×10^5 to 4×10^5 cells were seeded in 6-well plates and cultivated for 48 hours. Cells were incubated for 60 min with 1 mL serum-free medium containing the ^125I-labeled peptide (see above). For competition experiments, cells were simultaneously exposed to unlabeled (10^-4 M to 10^-10 M) and ^125I-labeled peptides. After three washing steps with PBS (pH 7.4) the cells were lysed with 0.5 mL of 0.3 M NaOH. Experiments concerning the internalization, kinetics and efflux were additionally performed with ^177Lu-DOTA-SFITGv6. To evaluate kinetics and efflux HNO97 cells were incubated for different time intervals (10 min to 480 min) and 60 min, respectively, with ^177Lu-DOTA-SFITGv6 and lysed as described. To continue with the efflux experiment radioactive medium was replaced by non-radioactive medium and cells were incubated again for 60 to 240 min before measuring radioactivity of the cell lysates and the medium. For internalization experiments the cells were exposed to ^177Lu-DOTA-SFITGv6 for different time intervals (10 to 240 min) at 37° C. and 4° C. After three washing steps with PBS the cells were incubated with 1 mL of glycine-HCl 50 mmol/L in PBS (pH 2.8) for 10 min at RT to remove the surface bound activity. Then, cells were washed with 3 mL of ice-cold PBS and lysed as described. Radioactivity was determined in a gamma counter and calculated as percentage of the applied dose per 1×10^6 cells. Experiments were performed three times, and three repetitions per independent experiment were acquired.
(§2) For the assessment of the peptide binding capacity in vitro, 2.5-4×10^5 cells were seeded into 6-well plates and cultivated for 48 h. ^125I-labeled peptide resuspended in 1 mL serum-free medium was added and incubated for either 10 min or 60 min with or without different concentrations of unlabeled peptide (10^−4-10^−11 M). Afterwards, cell monolayers were washed three times with 1 mL phosphate-buffered saline (pH 7.4) to remove unbound peptide and the cells were harvested with 1.4 mL lysis buffer (0.3 M NaOH). To evaluate kinetic properties the cells were exposed to ^177Lu-DOTA-labeled peptides for 10, 30, 60, 120, and 240 min, respectively, and lysed as described. For the efflux experiments the cells were incubated with ^177Lu-DOTA-labeled peptides for 60 min. Thereafter, radioactive medium was replaced by non-radioactive medium and cell monolayers were incubated for additional 60, 120, and 240 min and afterwards lysed as described earlier. The internalization was assessed after exposure of the cells to ^177Lu-DOTA-labeled peptides for 10, 30, 60, 120, and 240 min at 37° C. Unspecifically bound peptide was removed from the surface by incubation with 1 M glycine-HCl solution (pH 2.2) for 10 min. The monolayer cell was rinsed with PBS and cells were lysed as described before. Radioactivity was determined in a y-counter and calculated as percentage of the applied dose per 1×10^6 cells. Experiments were performed three times, and three repetitions per independent experiment were acquired.

HNO210 cells = assay: In vitro binding on HNO210 cells; format: cell-based, human; conditions: 60 min; percent applied dose/10^6 cells
Protocol: For binding studies, 2.5×10^5 to 4×10^5 cells were seeded in 6-well plates and cultivated for 48 hours. Cells were incubated for 60 min with 1 mL serum-free medium containing the ^125I-labeled peptide (see above). For competition experiments, cells were simultaneously exposed to unlabeled (10^-4 M to 10^-10 M) and ^125I-labeled peptides. After three washing steps with PBS (pH 7.4) the cells were lysed with 0.5 mL of 0.3 M NaOH. Experiments concerning the internalization, kinetics and efflux were additionally performed with ^177Lu-DOTA-SFITGv6. […] To continue with the efflux experiment radioactive medium was replaced by non-radioactive medium and cells were incubated again for 60 to 240 min before measuring radioactivity of the cell lysates and the medium. […] Radioactivity was determined in a gamma counter and calculated as percentage of the applied dose per 1×10^6 cells. […]
For the assessment of the peptide binding capacity in vitro, 2.5-4×10^5 cells were seeded into 6-well plates and cultivated for 48 h. ^125I-labeled peptide resuspended in 1 mL serum-free medium was added and incubated for either 10 min or 60 min with or without different concentrations of unlabeled peptide (10^−4-10^−11 M). […] The internalization was assessed after exposure of the cells to ^177Lu-DOTA-labeled peptides for 10, 30, 60, 120, and 240 min at 37° C. […]

HNO258 cells = assay: In vitro binding on HNO258 cells; format: cell-based, human; conditions: 60 min; percent applied dose/10^6 cells
Protocol: as §1, with “Then, cells were washed with 3 mL of ice-cold PBS and lysed as described.” left out, “Experiments were performed three times, and three repetitions per independent experiment were acquired.” left out

HT29 cells = assay: In vitro binding on HT29 cells; format: cell-based, human; conditions: 60 min; percent applied dose/10^6 cells
Protocol: as §1, with “Then, cells were washed with 3 mL of ice-cold PBS and lysed as described.” left out, “Experiments were performed three times, and three repetitions per independent experiment were acquired.” left out

LUDLU-1 cells = assay: In vitro binding on LUDLU-1 cells; format: cell-based, human; conditions: 60 min; percent applied dose/10^6 cells
Protocol: as §1, with “Then, cells were washed with 3 mL of ice-cold PBS and lysed as described.” left out, “Experiments were performed three times, and three repetitions per independent experiment were acquired.” left out

HNO399 cells = assay: In vitro binding on HNO399 cells; format: cell-based, human; conditions: 60 min; percent applied dose/10^6 cells
Protocol: as §2, with “To evaluate kinetic properties the cells were exposed to ^177Lu-DOTA-labeled peptides for 10, 30, 60, 120, and 240 min, respectively, and lysed as described.” left out, “The internalization was assessed after exposure of the cells to ^177Lu-DOTA-labeled peptides for 10, 30, 60, 120, and 240 min at 37° C.” left out

UM-UC-5 cells = assay: In vitro binding on UM-UC-5 cells; format: cell-based, human; conditions: 60 min; percent applied dose/10^6 cells
Protocol: as §1, with “Then, cells were washed with 3 mL of ice-cold PBS and lysed as described.” left out, “Experiments were performed three times, and three repetitions per independent experiment were acquired.” left out

HNO97 cells = assay: In vitro binding, kinetics, internalization and efflux on HNO97 cells; format: cell-based, human
Protocol: as §1, §2

[1] = Serum stability assay (radio-HPLC); format: in vitro ADME, human
Protocol: Five MBq of the purified ^131I-radiolabeled peptide was incubated in 300 μL human serum at 37° C. After different time intervals (15 min to 24 hours) 20 μL serum was precipitated with 40 μL acetonitrile. The stability of the labeled peptide in the supernatant was monitored by radio-HPLC at selected time points using a chromolith performance RP18ec column (3 mm×100 mm) equipped with a gamma detector (Packard COBRA™ Auto-Gamma, GMI). Separation condition was a gradient of 0% to 60% aqueous acetonitrile supplemented with 0.1% TFA over 10 min with a flow rate of 2 mL/min.

MCF-7 cells = assay: In vitro binding on MCF-7 cells; format: cell-based, human; conditions: 60 min; percent applied dose/10^6 cells
Protocol: as §1, with “Then, cells were washed with 3 mL of ice-cold PBS and lysed as described.” left out, “Experiments were performed three times, and three repetitions per independent experiment were acquired.” left out

Row | Substance | IC50 (Capan-2 cells) | competition of binding by non-radioactively labeled counterpart (carcinoma cell lines; 10^−6 M competitor, all tested HNSCC cell lines) | competition of binding by unlabeled analog (carcinoma cell lines; 10^−6 M unlabeled analog) | average specific binding of ^125I-labeled peptide (carcinoma cell lines; HNO97, other HNSCC, lung, bladder and colon carcinoma cell lines) | binding of ^125I-labeled peptide with unlabeled peptide as competitor (carcinoma cell lines) | binding of ^125I-labeled peptide (HNO210 cells) | binding of ^125I-labeled peptide (HNO258 cells) | binding of ^125I-labeled peptide (HT29 cells) | binding of ^125I-labeled peptide (LUDLU-1 cells) | binding of ^125I-labeled peptide (HNO399 cells) | binding of ^125I-labeled peptide (UM-UC-5 cells) | retention of radioactivity in cells (efflux experiment) (HNO97 cells; 240 min after termination of the uptake (1 h exposure), of originally accumulated activity) | maximal uptake of ^125I-labeled peptide (kinetics) (HNO97 cells; after exposure for 60 min) | internalization of ^125I-labeled peptide after decrease (HNO97 cells; decrease following the 60 min maximum) | maximal internalization of ^125I-labeled peptide (HNO97 cells; within 60 min) | proteolytic stability in human serum [1] | maximal uptake of ^125I-labeled peptide (kinetics) (HNO97 cells; after exposure for 120 min) | uptake of ^125I-labeled peptide after decrease (kinetics) (HNO97 cells; decrease following the 120 min maximum) | binding of ^125I-labeled peptide (MCF-7 cells)
1 | I: GRCTGRGDLGRLCYPD-NH2 / II: GRCTGRGDLGRLCYPD-NH2 / III: GRCTGRGDLGRLCYPD-NH2 / IV: {DOTA}-G[ξS]G[ξS][ξK]G[ξS]G[ξS][ξK]G[ξS]G[ξS][ξK]-NH2 (disulfide I:3-I:13, II:3-II:13, III:3-III:13; linker I:N-IV:15, II:N-IV:10, III:N-IV:5 via X1) [^125I-DOTA-SFLAP3-trimer] | 0.76 nM |  |  |  |  |  |  |  |  |  |  |  |  |  |  |  |  |  | 
2 | ^125I-SFITGv6: ^125I-labeled SFITGv6 (GRCTFRGDLMQLCY(125I)PD; disulfide 3-13) |  | almost completely competed | more than 90% | 7% | below 1 % of the applied dose | 7.1% and 10.5% | 3.5% | 2.8% | 4.3% | 9.8% | 10.4% | less than 5% | 37.3% | 12.6% | up to 24.1% | no degradation over a 24 hours |  |  | 
3 | ^125I-SFPF-10: ^125I-labeled peptide SFPF-10 (GRCTFRGDKMQLCY(125I)PD; disulfide 3-13 (inferred)) |  |  |  |  | below 1 % of the applied dose |  | 2.6% |  |  |  | 7.5% |  |  |  |  |  | 12.6% | 6.7% | 1.6%
